Experimental data reported in PubChem BioAssay (NCI).
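A five-concentration, 48-hour dose response in 96-well plates underlies each endpoint, interpolated linearly between surrounding concentrations. GI50 is the concentration that inhibits growth by half. At the TGI there is no net growth.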

Columns and labels:
Assay in all cases: growth of human tumour cells (NCI), 48 h
[1] = system: ACHN renal
[2] = system: HCC-2998 colon
[3] = system: HOP-62 NSCLC
[4] = system: M14 melanoma
[5] = system: MCF7 breast
[6] = system: MOLT-4 leukemia
[7] = system: OVCAR-5 ovarian
[8] = system: SF-539 CNS
[9] = system: UACC-257 melanoma
[10] = system: UACC-62 melanoma

| Structure (SMILES) | GI50 [1] | TGI [1] | GI50 [2] | TGI [2] | GI50 [3] | TGI [3] | GI50 [4] | TGI [4] | GI50 [5] | TGI [5] | GI50 [6] | TGI [6] | GI50 [7] | TGI [7] | GI50 [8] | TGI [8] | GI50 [9] | TGI [9] | GI50 [10] | TGI [10] |
| --- | --- | --- | --- | --- | --- | --- | --- | --- | --- | --- | --- | --- | --- | --- | --- | --- | --- | --- | --- | --- |
| COc1ccc(-c2cc(-c3cn[nH]c3-c3ccccn3)ccn2)cc1 | > 25 µM | > 25 µM | > 25 µM | > 25 µM | > 25 µM | > 25 µM | > 25 µM | > 25 µM | > 25 µM | > 25 µM | > 25 µM | > 25 µM | > 25 µM | > 25 µM | > 25 µM | > 25 µM | > 25 µM | > 25 µM | > 25 µM | > 25 µM |
| CC1(O)CC2(O)C=CC3=C(C(=O)c4cccc(O)c4C3=O)C2(O)C(=O)C1O (stereo not given) |  | 3.1 µM |  | 7.54 µM |  | 36.4 µM |  | 2.74 µM |  | 2.6 µM |  | 2.8 µM |  | 9.55 µM |  | 10 µM |  | 2.67 µM |  | 6.88 µM |
| O=C(NNc1ccccc1)OCc1ccccc1 | 6.9 µM | > 100 µM | 17.6 µM | > 100 µM | 84.5 µM | > 100 µM | 2.81 µM | 60.6 µM | 26.2 µM | > 100 µM | 5.89 µM | > 100 µM | 8.05 µM | > 100 µM | 2.91 µM | 10.3 µM | 18.5 µM | > 100 µM | 0.462 µM | 8.43 µM |
| CCOC(=O)c1ccc(Nc2sc(C(=O)c3cccc([N+](=O)[O-])c3)c(N)c2C#N)cc1 | 0.0976 µM | > 44.2 µM | 2.78 µM | > 100 µM | 0.108 µM | 6.39 µM | 0.213 µM | 23.9 µM | 0.102 µM | 13.2 µM | 0.203 µM | 6.59 µM | 2.25 µM | 29.6 µM | 0.0885 µM | 13.2 µM | 0.301 µM | > 31.6 µM | 0.0789 µM | 23.4 µM |
| COc1ccc2c(c1)sc1nc(-c3ccccc3)c(-c3ccc(O)c(OC)c3)n12 | 38.9 µM | > 100 µM | > 100 µM | > 100 µM | 37.8 µM | > 100 µM | 4.34 µM | > 100 µM | 28.6 µM | > 100 µM | 12.8 µM | > 100 µM | 33.7 µM | > 100 µM | 6.63 µM | > 100 µM | > 100 µM | > 100 µM | 8.29 µM | > 100 µM |
| COc1cc(Cn2ccc3c2-c2oncc2CC3)cc(OC)c1 | 5.54 µM | 97.9 µM | 7.13 µM | 90.1 µM | 4.4 µM | > 100 µM | 2.39 µM | 9.45 µM | 2.2 µM | > 100 µM | 4.09 µM | > 100 µM | 10.1 µM | > 100 µM | 2.8 µM | 21.4 µM | 6.72 µM | 91.1 µM | 3.68 µM | > 100 µM |
| Nc1nc(N)c2c(ccc3nccc32)[nH]1 | 4.24 µM | 36 µM | 9.79 µM | > 91 µM | 24.8 µM | > 100 µM | 1.92 µM | > 79.8 µM | 2.26 µM | 15.5 µM | 3.12 µM | > 92.1 µM | 12.4 µM | > 100 µM | 3.26 µM | > 86.1 µM | 1.54 µM | 17.9 µM | 2.67 µM | 17.6 µM |
